Measured values reported in publication PMC1664607 (PLoS Medicine, 2006).
Values after ≈ are worked out from the molar mass of the structure shown. Where two headings read alike, the source gives them in different places.

Experiments:
[1] = tested on: M. tuberculosis ATCC 35812 (Kurono); assay: Susceptibility testing (agar dilution MIC); assay type: cell-based; settings: Mycobacterium tuberculosis, ATCC35812, 336 h
[2] = tested on: M. tuberculosis ATCC 35838 (H37Rv-R-R); assay: microbe, parasite or virus in culture; assay type: cell-based; settings: Mycobacterium tuberculosis, 336 h
[3] = tested on: intracellular M. tuberculosis H37Rv in THP-1 cells; assay: Activity against intracellular mycobacteria, 4-h pulsed exposure; assay type: cell-based, M. tuberculosis; human THP-1 cells; settings: further 68-h culture
[4] = tested on: M. tuberculosis ATCC 35822 (H37Rv-H-R); assay: microbe, parasite or virus in culture; assay type: cell-based; settings: Mycobacterium tuberculosis, 336 h
M. tuberculosis Kurono = assay: Therapeutic efficacy in an experimental mouse model of chronic TB; assay type: in vivo, ICR mice; settings: for Log of Viable Counts/Lung: 672 h; for Dose that could produce a CFU reduction of at least 95%: lung; for Dose that could produce a CFU reduction of at least 95% / Dose groups that showed a significant decrease in pulmonary viable bacterial count when compared with the vehicle control group: once daily for 28 d
[5] = tested on: clinically isolated M. tuberculosis; assay: microbe, parasite or virus in culture; assay type: cell-based; settings: Mycobacterium tuberculosis; read-out: MIC90
[6] = Plasma levels in an experimental mouse model of TB; settings: in vivo, po
[7] = tested on: M. tuberculosis ATCC 35820 (H37Rv-S-R); assay: microbe, parasite or virus in culture; assay type: cell-based; settings: Mycobacterium tuberculosis, 336 h
[8] = tested on: M. tuberculosis ATCC 35837 (H37Rv-E-R); assay: microbe, parasite or virus in culture; assay type: cell-based; settings: Mycobacterium tuberculosis, 336 h
[9] = tested on: M. tuberculosis ATCC 25618 (H37Rv); assay: Susceptibility testing (agar dilution MIC); assay type: cell-based; settings: Mycobacterium tuberculosis, 336 h
[10] = tested on: mycolic acid synthesis in M. bovis BCG; assay: microbe, parasite or virus in culture; assay type: cell-based; settings: Mycobacterium tuberculosis variant bovis BCG, BCG
S. typhimurium TA1537 = assay: Bacterial reverse mutation (BRM) test; assay type: cell-based; settings: S9 mix −; positive control ACR 80 μg/plate
Experimental: (§1) The BRM test was performed in accordance with OECD Guideline 471 using Salmonella tyiphimurium TA98, TA100, TA1535, and TA1537, and Escherichia coli WP2 uvrA [11]. Each bacterial strain was pre-cultured at 37 °C for 18 h using a nutrient broth (Nissui Pharmaceutical; http://www.nissui-pharm.co.jp/index_e.html). After adjustment to 2.4 at OD660 nm, each bacterial suspension was added to a test tube containing the designated compound in the absence or presence of rat liver microsome (S9) mix. After a 20-min incubation at 37 °C, top agar was added to each test tube and the contents were poured into minimum essential medium (Oriental Yeast; http://www.oyc.co.jp/e/index.htm). The number of revertants was counted 48 h after incubation at 37 °C.

CYP2C8/9 = assay: Tolubutamide methylhydroxylation in human liver microsomes; assay type: in vitro ADME; settings: 100 μM; 400 μM tolbutamide
M. tuberculosis = assay: Activity of the main metabolite (test not described); settings: metabolite produced in the presence of M. tuberculosis
S. typhimurium TA1535 = assay: Bacterial reverse mutation (BRM) test; assay type: cell-based; settings: S9 mix −; positive control NaN3 0.5 μg/plate
Experimental: as §1

For `NNC(=O)c1ccncc1` [INH, isoniazid], which MIC [1] is on record?
Its MIC is 0.1 µg/mL (≈ 0.729 µM).

And the MIC [2]?
Its MIC is 0.1 µg/mL (≈ 0.729 µM).

And the “Activity against intracellular M. tuberculosis H37Rv” value [3]?
The value was “poor activity”.

And the MIC [4]?
The MIC was greater than 100 µg/mL.

And the “Log of Viable Counts/Lung” value (M. tuberculosis Kurono; 1.25 mg/kg)?
The value was 6.702 ± 0.237^c:NS, d:NS.

What about the “Log of Viable Counts/Lung” value (M. tuberculosis Kurono; 2.5 mg/kg) of the same molecule?
Its value is 5.751 ± 0.358^c:**, d:*.

What about the “Log of Viable Counts/Lung” value (M. tuberculosis Kurono; 5 mg/kg) of the same molecule?
The value was 4.944 ± 0.760^c:**, d:**.

And the “Log of Viable Counts/Lung” value (M. tuberculosis Kurono; 10 mg/kg)?
Its value is 4.434 ± 0.319^c:**, d:**.

And the “Log of Viable Counts/Lung” value (M. tuberculosis Kurono; 20 mg/kg)?
The value was 4.595 ± 0.452^c:**, d:**.

And the “Dose that could produce a CFU reduction of at least 95%” value (M. tuberculosis Kurono)?
Its value is 5 mg/kg.

And the “Dose groups that showed a significant decrease in pulmonary viable bacterial count when compared with the vehicle control group” value (M. tuberculosis Kurono)?
The value was 2.5, 5, 10, and 20 mg/kg.

What about the MIC90 [5] of the same molecule?
The MIC90 was 0.099 µg/mL (≈ 0.722 µM).

And the concentration at 0.083 h [6]?
Its concentration at 0.083 h is 2170 ± 435 ng/mL.

And the concentration at 0.25 h [6]?
Its concentration at 0.25 h is 3060 ± 779 ng/mL.

What about the concentration at 0.5 h [6] of the same molecule?
The concentration at 0.5 h was 2280 ± 390 ng/mL.

What about the concentration at 1 h [6] of the same molecule?
Its concentration at 1 h is 1920 ± 478 ng/mL.

And the concentration at 2 h [6]?
The concentration at 2 h was 740 ± 202 ng/mL.

What about the concentration at 4 h [6] of the same molecule?
The concentration at 4 h was 253 ± 57 ng/mL.

What about the AUC(0-t) ([6]; 10 mg/kg) of the same molecule?
The AUC(0-t) was 4550 ng·h/mL.

What about the Cmax ([6]; 10 mg/kg) of the same molecule?
The Cmax was 3060 ng/mL.

And the Tmax ([6]; 10 mg/kg)?
The Tmax was 0.25 h.

And the MIC [7]?
The MIC was 0.1 µg/mL (≈ 0.729 µM).

And the MIC [8]?
Its MIC is 0.2 µg/mL (≈ 1.46 µM).

What about the MIC [9] of the same molecule?
The MIC was 0.1 µg/mL (≈ 0.729 µM).

And the IC50 ([10]; 1 h, read-out: IC50, Fatty acid)?
Its IC50 is greater than 4 µg/mL.

And the IC50 ([10]; 1 h, read-out: IC50, Keto-mycolic acid)?
The IC50 was 0.69 µg/mL (≈ 5.03 µM).

What about the IC50 ([10]; 1 h, read-out: IC50, Methoxy-mycolic acid) of the same molecule?
The IC50 was 0.63 µg/mL (≈ 4.59 µM).

What about the IC50 ([10]; 1 h, read-out: IC50, α-Mycolic acid) of the same molecule?
The IC50 was 1.85 µg/mL (≈ 13.5 µM).

And the IC50 ([10]; read-out: IC50 values, all mycolic acid subclasses)?
Its IC50 is 0.63 to 1.85 µg/mL (≈ 4.59 to 13.5 µM).

Which Revertants/Plate (S. typhimurium TA1537) does the source give for `Nc1c2ccccc2nc2ccccc12` [ACR, 9-aminoacridine] here?
Its Revertants/Plate is 64 953 Revertants/Plate.

Which MIC [1] does the source give for `O=[N+]([O-])c1cn2c(n1)OC[C@@H](OCc1ccc(OC(F)(F)F)cc1)C2` [PA-824] here?
The MIC was 0.2 µg/mL (≈ 0.557 µM).

And the MIC [2]?
The MIC was 0.1 µg/mL (≈ 0.278 µM).

And the “Activity against intracellular M. tuberculosis H37Rv” value [3]?
Its value is “poor activity”.

And the MIC [4]?
Its MIC is 0.05 µg/mL (≈ 0.139 µM).

What about the “Log of Viable Counts/Lung” value (M. tuberculosis Kurono; 1.25 mg/kg) of the same molecule?
The value was 6.905 ± 0.382^c:NS, d:NS.

And the “Log of Viable Counts/Lung” value (M. tuberculosis Kurono; 2.5 mg/kg)?
Its value is 6.567 ± 0.108^c:NS, d:NS.

What about the “Log of Viable Counts/Lung” value (M. tuberculosis Kurono; 5 mg/kg) of the same molecule?
Its value is 6.329 ± 0.303^c:NS, d:NS.

What about the “Log of Viable Counts/Lung” value (M. tuberculosis Kurono; 10 mg/kg) of the same molecule?
Its value is 6.244 ± 0.728^c:NS, d:NS.

And the “Log of Viable Counts/Lung” value (M. tuberculosis Kurono; 20 mg/kg)?
The value was 4.688 ± 0.944^c:**, d:**.

And the “Log of Viable Counts/Lung” value (M. tuberculosis Kurono; 40 mg/kg)?
The value was 5.145 ± 0.444^c:**, d:**.

What about the MIC [7] of the same molecule?
Its MIC is 0.2 µg/mL (≈ 0.557 µM).

And the MIC [8]?
Its MIC is 0.2 µg/mL (≈ 0.557 µM).

And the MIC [9]?
Its MIC is 0.2 µg/mL (≈ 0.557 µM).

Which results are given for `CC[C@@H](CO)NCCN[C@@H](CC)CO` [EB, ethambutol]?
MIC [1]: 3.13 µg/mL (≈ 15.3 µM); MIC [2]: 1.56 µg/mL (≈ 7.64 µM); MIC [4]: 3.13 µg/mL (≈ 15.3 µM); Log of Viable Counts/Lung (M. tuberculosis Kurono; 20 mg/kg): 6.923 ± 0.721^a:NS, b:NS; Log of Viable Counts/Lung (M. tuberculosis Kurono; 40 mg/kg): 6.696 ± 0.382^a:NS, b:NS; Log of Viable Counts/Lung (M. tuberculosis Kurono; 80 mg/kg): 6.429 ± 0.475^a:NS, b:NS; Log of Viable Counts/Lung (M. tuberculosis Kurono; 160 mg/kg): 5.642 ± 0.120^a:**, b:**; Dose that could produce a CFU reduction of at least 95% (M. tuberculosis Kurono): > 160 mg/kg; Dose groups that showed a significant decrease in pulmonary viable bacterial count when compared with the vehicle control group (M. tuberculosis Kurono): 160 mg/kg; MIC90 [5]: 3.64 µg/mL (≈ 17.8 µM); AUC(0-t) [6]: 12200 ng·h/mL; concentration at 0.083 h [6]: 55 ± 49 ng/mL; concentration at 0.25 h [6]: 1300 ± 939 ng/mL; concentration at 0.5 h [6]: 3170 ± 392 ng/mL; concentration at 1 h [6]: 3510 ± 1130 ng/mL; concentration at 2 h [6]: 2510 ± 1010 ng/mL; concentration at 4 h [6]: 1020 ± 202 ng/mL; AUC(0-t) ([6]; 100 mg/kg): 12100 ng·h/mL; Cmax ([6]; 100 mg/kg): 3510 ng/mL; Tmax ([6]; 100 mg/kg): 1 h; half-life ([6]; 100 mg/kg): 2.8 h; MIC [7]: 3.13 µg/mL (≈ 15.3 µM); MIC [8]: 50 µg/mL (≈ 245 µM); MIC [9]: 1.56 µg/mL (≈ 7.64 µM)

Which “Percent of Control” value (CYP2C8/9) does the source give for `O=c1c(O)c(-c2ccc(O)c(O)c2)oc2cc(O)cc(O)c12` [Quercetin, quercetin] here?
Its value is 30.6% of Control.

For `CC1(COc2ccc(N3CCC(Oc4ccc(OC(F)(F)F)cc4)CC3)cc2)Cn2ccnc2O1` (centres unmarked) [desnitro-imidazooxazole], which “Activity of the main metabolite” value (M. tuberculosis) is on record?
Its value is “non-active”.

Which MIC [1] does the source give for `CN[C@@H]1[C@H](O[C@H]2[C@H](O[C@H]3[C@H](O)[C@@H](O)[C@H](N=C(N)N)[C@@H](O)[C@@H]3N=C(N)N)O[C@@H](C)[C@]2(O)C=O)O[C@@H](CO)[C@H](O)[C@H]1O` [SM, streptomycin] here?
Its MIC is 0.78 µg/mL (≈ 1.34 µM).

And the MIC [2]?
Its MIC is 0.78 µg/mL (≈ 1.34 µM).

And the MIC [4]?
The MIC was 0.78 µg/mL (≈ 1.34 µM).

And the “Log of Viable Counts/Lung” value (M. tuberculosis Kurono; 20 mg/kg)?
The value was 6.000 ± 0.553^a:**, b:*.

What about the “Log of Viable Counts/Lung” value (M. tuberculosis Kurono; 40 mg/kg) of the same molecule?
Its value is 6.040 ± 0.361^a:**, b:*.

And the “Log of Viable Counts/Lung” value (M. tuberculosis Kurono; 80 mg/kg)?
The value was 5.739 ± 0.309^a:**, b:**.

And the “Log of Viable Counts/Lung” value (M. tuberculosis Kurono; 160 mg/kg)?
The value was 5.184 ± 0.461^a:**, b:**.

What about the “Dose that could produce a CFU reduction of at least 95%” value (M. tuberculosis Kurono) of the same molecule?
The value was 40 mg/kg.

And the “Dose groups that showed a significant decrease in pulmonary viable bacterial count when compared with the vehicle control group” value (M. tuberculosis Kurono)?
Its value is 20, 40, 80, and 160 mg/kg.

What about the MIC90 [5] of the same molecule?
Its MIC90 is 2.94 µg/mL (≈ 5.05 µM).

What about the MIC [7] of the same molecule?
Its MIC is greater than 100 µg/mL.

And the MIC [8]?
Its MIC is 0.78 µg/mL (≈ 1.34 µM).

What about the MIC [9] of the same molecule?
The MIC was 1.56 µg/mL (≈ 2.68 µM).

With `[N-]=[N+]=[N-].[Na+]` [NaN3, sodium azide] as the molecule, how does the Revertants/Plate (S. typhimurium TA1535) read?
The Revertants/Plate was 6 174 Revertants/Plate.
